Results as given in patent publication US10800816B2 (Baxalta GmbH, priority 2012, dated 2020).
Like-named read-outs stand apart in the source and are kept apart here. Bridges are numbered along the chain shown (N, C = ends).

How the values were obtained:
[1] = system: Tissue Factor Pathway Inhibitor (TFPI); test: IC50 ELISA | IC50 [nM]
Source text: Table printed on a drawing sheet, FIGURE 78U
(§1) Head of the field: IC50 ELISA | IC50 [nM]

[2] = system: Tissue Factor Pathway Inhibitor (TFPI); test: IC50 ELISA | Mean IC50 [nM]
FIGURE 78K = test: FIGURE 78K
Source text: Table printed on a drawing sheet, FIGURE 78K

FIGURE 78L = test: FIGURE 78L
Source text: Table printed on a drawing sheet, FIGURE 78L

[3] = system: Tissue Factor Pathway Inhibitor (TFPI); test: IC50 ELISA | Mean IC50 [nM]; remark: listed apart in the source
Source text: Table printed on a drawing sheet, FIGURE 78M
Head of the field: IC50 ELISA | Mean IC50 [nM]

[4] = system: Tissue Factor Pathway Inhibitor (TFPI); test: IC50 ELISA | Mean IC50 [nM]; remark: listed apart in the source
[5] = system: Tissue Factor Pathway Inhibitor (TFPI); test: IC50 ELISA | Mean IC50 [nM]; remark: listed apart in the source
FIGURE 78W = test: FIGURE 78W
Source text: Table printed on a drawing sheet, FIGURE 78W

[6] = system: Tissue Factor Pathway Inhibitor (TFPI); test: IC50 ELISA | IC50 [nM]; remark: listed apart in the source
Source text: Table printed on a drawing sheet, FIGURE 78Q
as §1

[7] = system: Tissue Factor Pathway Inhibitor (TFPI); test: IC50 ELISA | IC50 [nM]; remark: listed apart in the source
Source text: Table printed on a drawing sheet, FIGURE 78R
as §1

TFPI [8] = test: Progress Curves of Inhibition of FXa | % Inhibit (2.5µM)
TFPI [9] = test: Extrinsic Tenase Inhibition by TFPI | % Inhibit (2.5µM)
TFPI [10] = test: Progress Curves of Inhibition of FXa | % Inhibit (2.5µM); remark: listed apart in the source
TFPI [11] = test: Extrinsic Tenase Inhibition assay | % Inhibition @ 2.5µM
[12] = system: Tissue Factor Pathway Inhibitor (TFPI); test: IC50 ELISA | Mean IC50 [nM]; remark: listed apart in the source
FIX knock-out mice = test: Tail-tip bleed model in FIX knock-out mice; type: in vivo, mouse
Experimental: JBT2329 also was tested in a FIX knock-out tail-tip bleed mouse model, which is a clinically-relevant model for hemophilia B human patients. The methodology was substantially similar to that described above with respect to the FVIII knock-out model. Instead of ADVATE, a recombinant FIX (rFIX) served as a reference. Median total blood loss in buffer-treated animals was 935 mg. Median total blood loss in animals treated with a murine anti-TFPI antibody (maTFPI) was 774 mg. Median total blood loss was reduced further when the animals received combined treatment of maTFPI and rFIX.

Ac-FQSKpNVH-Tle-DaYF[-Hcy-RL-Aib--Hcy-]KL-NH2 [JBT00002489]
IC50 [1]: > 500 nM

Ac-FQSKpNVHVDGYFERL-Aib-AKLC(ME-50MA)-NH2 [JBT00002325]
IC50 [2]: 6.6 nM

Ac-FQSKpNVHVDGYFERL-Aib-AKLC(ME-120MA)-NH2 [JBT00002326]
IC50 [2]: 9.3 nM

Ac-FQSKpNVHVDGYFERL-Aib-AKLC(ME-400MA)-NH2 [JBT00002329] [listing 1 of 2 here]
24 h Human Plasma Stability | Mean Remaining [%] (FIGURE 78K): 69.50%
24 h Mouse Plasma Stability | Mean Remaining [%] (FIGURE 78K): 69.50%
24 h Human Plasma Stability | Mean Remaining [%] (FIGURE 78L): 62.90%
24 h Mouse Plasma Stability | Mean Remaining [%] (FIGURE 78L): 81.80%
24 h Human Plasma Stability | Mean Remaining [%] (FIGURE 78M): 59.30%
24 h Mouse Plasma Stability | Mean Remaining [%] (FIGURE 78M): 56.70%

Ac-FQSKpNVHVDGYFERL-Aib-AKLC(ME-400MA)-NH2 [JBT00002329] [listing 2 of 2 here]
IC50 [3]: 20.8 nM

Ac-FQSKpNVHVDGYFERL-Aib-AKLK(AOA-40kDa PSA)- NH2 [JBT00002430]
IC50 [4]: 15.4 nM

Ac-FQSKpNVHVDGYFERL-Egz-AKL-NH2 [JBT00002302]
IC50 [5]: 2.7 nM

Ac-FQSKpNVHVPcYF-Hcy-RL-Aib-AKL-NH2 [JBT00002499]
24 h Human Plasma Stability | Mean Remaining [%] (FIGURE 78W): 40.70%

Ac-FQVH-Tle-DGYFERL-Aib-AKL-NH2 [JBT00002428]
IC50 [6]: > 500 nM

Ac-FqVH-Tle-DGYFERL-Aib-AKL-NH2 [JBT00002429]
IC50 [7]: > 500 nM

Ac-KWFCGMRDMKGTMSCVWVKFRYDTS- [JBT0324]
Progress Curves of Inhibition of FXa | % Inhibit ([…]) (TFPI [8]): 0%

Ac-SGGRKHKHFLRSNGKPSRALSS-NH2 (SEQ [JBT0424]
Extrinsic Tenase Inhibition by TFPI | % Inhibit ([…]) (TFPI [9]): 0%
Progress Curves of Inhibition of FXa | % Inhibit ([…]) (TFPI [10]): 1%

Ac-SRYKWFGMR[CDMKGC]TMSVWVKF-NH2 (SEQ ID NO: 1162) (Ac-SRYKWFGMRCDMKGCTMSVWVKF-NH2; disulfide 10-15; SMILES CSCC[C@H](NC(=O)CNC(=O)[C@H](Cc1ccccc1)NC(=O)[C@H](Cc1c[nH]c2ccccc12)NC(=O)[C@H](CCCCN)NC(=O)[C@H](Cc1ccc(O)cc1)NC(=O)[C@H](CCCNC(=N)N)NC(=O)[C@H](CO)NC(C)=O)C(=O)N[C@@H](CCCNC(=N)N)C(=O)N[C@H]1CSSC[C@@H](C(=O)N[C@H](C(=O)N[C@@H](CCSC)C(=O)N[C@@H](CO)C(=O)N[C@H](C(=O)N[C@@H](Cc2c[nH]c3ccccc23)C(=O)N[C@H](C(=O)N[C@@H](CCCCN)C(=O)N[C@@H](Cc2ccccc2)C(N)=O)C(C)C)C(C)C)[C@@H](C)O)NC(=O)CNC(=O)[C@H](CCCCN)NC(=O)[C@H](CCSC)NC(=O)[C@H](CC(=O)O)NC1=O) [JBT0470]
Extrinsic Tenase Inhibition assay | % Inhibition @ […] (TFPI [11]): 2%

FAM-Ttds-FQSK-Nmg-NVFVDGYFERL-Aib-AKL-NH2 [JBT00002262]
IC50 [12]: 13.4 nM

Palm-FQSKpNVH-Tle-DaYFERL-Aib-AKL-NH2 [JBT00002440]
IC50 [7]: > 500 nM

rFIX: a recombinant FIX
Median total blood loss (FIX knock-out mice; 10 IU/kg rFIX alone): 888 mg
Median total blood loss (FIX knock-out mice; 25 IU/kg rFIX alone): 774 mg
